{"source": "patent US20100216854A1", "about": "“1,3 AND 1,3,5 SUBSTITUTED IMIDAZOLES AS […]” (Eldrug S.A., priority 2007, published 2010)", "key": {"[1]": {"biological_target": "T1, Angiotensin II (AII) receptor (Oryctolagus cuniculus, UniProt P34976)", "T1 construct": "evaluated in the anesthetized rabbit preparation made hypertensive by intravenous infusion of AII; from tissue; host or cells: whole living New Zealand White rabbit (in vivo blood pressure)", "T1 sequence (P34976 1-359)": "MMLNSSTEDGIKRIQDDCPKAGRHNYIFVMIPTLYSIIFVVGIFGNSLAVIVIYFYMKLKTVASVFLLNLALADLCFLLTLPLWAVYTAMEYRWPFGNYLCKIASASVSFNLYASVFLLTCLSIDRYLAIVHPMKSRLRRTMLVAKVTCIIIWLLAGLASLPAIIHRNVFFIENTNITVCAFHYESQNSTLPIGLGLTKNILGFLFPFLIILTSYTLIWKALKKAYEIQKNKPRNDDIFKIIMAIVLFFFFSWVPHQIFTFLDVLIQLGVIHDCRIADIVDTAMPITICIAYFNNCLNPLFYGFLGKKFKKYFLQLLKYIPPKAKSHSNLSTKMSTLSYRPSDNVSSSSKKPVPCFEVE", "test": "Hypotensive effect as ARBs in anesthetized rabbits made hypertensive by AII infusion", "type": "in vivo, New Zealand White rabbits", "conditions": "AII infusion 1 μg/min; for Mean BP after 1st bolus (300 ng/kg) / Mean BP after 1st bolus (150 ng/kg): IV bolus; for Mean BP after 1st bolus (300 ng/kg) / Mean BP after 2nd bolus (600 ng/kg) / Mean BP after 1st bolus (150 ng/kg) / Mean BP after 2nd bolus (300 ng/kg): mean ± S.D.; for Mean BP after 2nd bolus (600 ng/kg): second IV bolus 15 min after 300 ng/kg; for Mean BP after 2nd bolus (300 ng/kg): second IV bolus 15 min after 150 ng/kg", "method": "The hypotensive effect of these compounds as ARBs was evaluated in the anesthetized rabbit preparation made hypertensive by intravenous infusion of AII. In brief, adult normotensive male New Zealand White rabbits weighing between 2.5 and 3.5 kg were anesthetized by pentobarbitone (30 mg/kg), intubated and mechanically ventilated with 100% oxygen using a respirator for small animals (MD Industries, Mobile, Ala., USA). The tidal volume was 15 ml and the rate was adjusted to keep blood gases within normal range. Two polyethylene catheters were inserted, one in the carotid artery for continuous blood pressure monitoring via a transducer attached to a multichannel recorder (Nihon-Kohden, Model 6000, Japan) and the other one in the jugular vein for the administrations of solution made by diluting angiotensin II (ANGII) (Hypertension, CIBA) in 5% dextrose at final concentration of 5 μg/ml. Based on previous testing with this rabbit preparation submaximal angiotensin II-dependent hypertension was induced by infusing angiotensin via a syringe pump (Harvard Apparatus Pump 22, Harvard Apparatus, Natick, Mass., USA) at a constant rate of 0.2 ml/min (1 μg/min). Five minutes after the establishment of hypertension, two cumulative IV boluses of each compound were given via an ear vein 15 minutes apart. After the second bolus mean blood pressure was recorded for 30 minutes and the experiment was terminated. […]\nCompounds E-P, H—P, H-Px, were also tested for the AngII receptor blocker properties, by testing their ability to block the hypertensive effect of AngII, using adult normotensive male New Zealand white rabbits. […] Values represent the mean blood pressure and are given as mean±S.D."}, "α2-AR": {"test_system": "α2-AR", "test": "Testing α2-agonist properties: BP response to norepinephrine bolus before and after compound in mice", "type": "in vivo, Swiss Webster mice", "conditions": "for suppression of the hypertensive effect of NE: NE bolus 30 minutes after injection of compound, higher dose (300) for E-P, 100 for H-P, H-Px and UK 14304; for BP after compound (100 μg/kg): iv 100 μg/kg; for BP after compound (300 μg/kg): iv 300 μg/kg", "method": "Swiss Webster mice were anesthetized with 50 mg/kg pentobarbital and two lines were inserted, one in right iliac artery and the other in right iliac vein. Next morning the arterial line was connected to a blood pressure transducer and the mean BP was recorded with a Power lab/800 data acquisition system. The venous line was used for drug infusion."}, "[2]": {"test": "Effect on mean BP in anesthetized normotensive rabbits (agonistic effect)", "type": "in vivo", "conditions": "cumulative IV injections of 300-900 ng/kg"}, "rat uterus": {"test_system": "rat uterus", "conditions": "rat uterus assay; cited from earlier work"}, "[3]": {"conditions": "anesthetized rabbits; cited from earlier work"}, "[4]": {"conditions": "group mean, after 100 μg/kg compound, second NE bolus 30 min after compound"}, "[5]": {"conditions": "group mean, BP recorded after injection"}, "[6]": {"conditions": "individual mice, 100 μg/kg compound"}, "[7]": {"conditions": "individual mice, after 100 μg/kg compound"}}, "note": "“And” between values parts separate entries of the source, which are not always exact repeats. Identical values can stand only once. Marks after values point to notes of the source that are not given here.", "data": [{"compound": "CCOc1nc2cccc(C(=O)O)c2n1Cc1ccc(-c2ccccc2-c2nnn[nH]2)cc1", "note": "[Candesartan]", "values": [{"measurement": "Cumulative % drop in mean BP after the 2nd bolus", "setting": "[1]; boluses 150 then 300 ng/kg", "value": "−41 ± 3", "unit": "%"}]}, {"compound": "N=C(N)NCCc1cncn1Cc1ccccc1-c1nnn[nH]1", "note": "[E-P]", "values": [{"measurement": "suppression of the hypertensive effect of NE", "setting": "α2-AR", "value": 45, "unit": "%"}, {"measurement": "Δ2 = BP changes between second bolus of Norepinephrine and the new baseline BP after injection of compound", "setting": "α2-AR; group mean, 100 μg/kg compound", "value": 23.0, "unit": "mmHg"}, {"measurement": "Δ2 = BP changes between second bolus of Norepinephrine and the new baseline BP after injection of compound", "setting": "α2-AR; group mean, 300 μg/kg compound", "value": 12.3, "unit": "mmHg"}, {"measurement": "BP after second bolus NE (0.12 μg/kg)", "setting": "α2-AR; [4]", "value": 153.5, "unit": "mmHg"}, {"measurement": "BP after second bolus NE (0.12 μg/kg)", "setting": "α2-AR; group mean, after 300 μg/kg compound", "value": 124.0, "unit": "mmHg"}, {"measurement": "BP after compound (100 μg/kg)", "setting": "α2-AR; [5]", "value": 130.5, "unit": "mmHg"}, {"measurement": "BP after compound (300 μg/kg)", "setting": "α2-AR; group mean", "value": 111.7, "unit": "mmHg"}, {"measurement": "Δ2 = BP changes between second bolus of Norepinephrine and the new baseline BP after injection of compound", "setting": "α2-AR; [6]", "value": "32.0 mmHg and 14.0 mmHg"}, {"measurement": "Δ2 = BP changes between second bolus of Norepinephrine and the new baseline BP after injection of compound", "setting": "α2-AR; individual mice, 300 μg/kg compound", "value": "8.0 mmHg and 13.0 mmHg and 16.0 mmHg"}, {"measurement": "BP after second bolus NE (0.12 μg/kg)", "setting": "α2-AR; [7]", "value": "158.0 mmHg and 149.0 mmHg"}, {"measurement": "BP after second bolus NE (0.12 μg/kg)", "setting": "α2-AR; individual mice, after 300 μg/kg compound", "value": "128.0 mmHg and 120.0 mmHg and 124.0 mmHg"}, {"measurement": "BP after compound (100 μg/kg)", "setting": "α2-AR; individual mice", "value": "126.0 mmHg and 135.0 mmHg"}, {"measurement": "BP after compound (300 μg/kg)", "setting": "α2-AR; individual mice", "value": "120.0 mmHg and 107.0 mmHg and 108.0 mmHg"}, {"measurement": "dose required to suppress NE effect", "setting": "α2-AR; mice", "value": 0.3, "unit": "mg/kg"}, {"measurement": "Mean BP after 1st bolus (300 ng/kg)", "setting": "[1]", "value": "149 ± 7", "unit": "mmHg"}, {"measurement": "Mean BP after 2nd bolus (600 ng/kg)", "setting": "[1]", "value": "140 ± 3", "unit": "mmHg"}, {"measurement": "Cumulative % drop in mean BP after the 2nd bolus", "setting": "[1]; boluses 300 then 600 ng/kg", "value": "−15 ± 4", "unit": "%"}, {"measurement": "effect on mean BP", "setting": "[2]", "value": "did not significantly affect mean BP"}]}, {"compound": "NCCc1cncn1Cc1ccccc1-c1nnn[nH]1", "note": "[H-Px]", "values": [{"measurement": "suppression of the hypertensive effect of NE", "setting": "α2-AR", "value": 42, "unit": "%"}, {"measurement": "Δ2 = BP changes between second bolus of Norepinephrine and the new baseline BP after injection of compound", "setting": "α2-AR; group mean, 100 μg/kg compound", "value": 12.0, "unit": "mmHg"}, {"measurement": "BP after second bolus NE (0.12 μg/kg)", "setting": "α2-AR; [4]", "value": 128.3, "unit": "mmHg"}, {"measurement": "BP after compound (100 μg/kg)", "setting": "α2-AR; [5]", "value": 125.3, "unit": "mmHg"}, {"measurement": "Δ2 = BP changes between second bolus of Norepinephrine and the new baseline BP after injection of compound", "setting": "α2-AR; [6]", "value": "15* mmHg and 11.0 mmHg and 13.0 mmHg"}, {"measurement": "BP after second bolus NE (0.12 μg/kg)", "setting": "α2-AR; [7]", "value": "114.0 mmHg and 136.0 mmHg and 135.0 mmHg"}, {"measurement": "BP after compound (100 μg/kg)", "setting": "α2-AR; individual mice", "value": "129.0 mmHg and 125.0 mmHg and 122.0 mmHg"}, {"measurement": "dose required to suppress NE effect", "setting": "α2-AR; mice", "value": 0.1, "unit": "mg/kg"}, {"measurement": "Mean BP after 1st bolus (300 ng/kg)", "setting": "[1]", "value": "148 ± 23", "unit": "mmHg"}, {"measurement": "Mean BP after 2nd bolus (600 ng/kg)", "setting": "[1]", "value": "131 ± 15", "unit": "mmHg"}, {"measurement": "Cumulative % drop in mean BP after the 2nd bolus", "setting": "[1]; boluses 300 then 600 ng/kg", "value": "−24 ± 4", "unit": "%"}, {"measurement": "effect on mean BP", "setting": "[2]", "value": "did not significantly affect mean BP"}]}, {"compound": "CCCCC1=NC2(CCCC2)C(=O)N1Cc1ccc(-c2ccccc2-c2nnn[nH]2)cc1", "note": "[Irbesartan]", "values": [{"measurement": "Mean BP after 1st bolus (150 ng/kg)", "setting": "[1]", "value": "141 ± 10", "unit": "mmHg"}, {"measurement": "Mean BP after 2nd bolus (300 ng/kg)", "setting": "[1]", "value": "133 ± 11", "unit": "mmHg"}, {"measurement": "Cumulative % drop in mean BP after the 2nd bolus", "setting": "[1]; boluses 150 then 300 ng/kg", "value": "−24 ± 7", "unit": "%"}]}, {"compound": "CCCCc1nc(Cl)c(CO)n1Cc1ccc(-c2ccccc2-c2nn[nH]n2)cc1", "note": "[Losartan]", "values": [{"measurement": "Mean BP after 1st bolus (150 ng/kg)", "setting": "[1]", "value": "148 ± 6", "unit": "mmHg"}, {"measurement": "Mean BP after 2nd bolus (300 ng/kg)", "setting": "[1]", "value": "136 ± 3", "unit": "mmHg"}, {"measurement": "Cumulative % drop in mean BP after the 2nd bolus", "setting": "[1]; boluses 150 then 300 ng/kg", "value": "−22 ± 5", "unit": "%"}]}, {"compound": "Brc1c(NC2=NCCN2)ccc2nccnc12", "note": "[UK 14304, reference compound]", "values": [{"measurement": "suppression of the hypertensive effect of NE", "setting": "α2-AR", "value": 48, "unit": "%"}, {"measurement": "Δ2 = BP changes between second bolus of Norepinephrine and the new baseline BP after injection of compound", "setting": "α2-AR; group mean, 100 μg/kg compound", "value": 15.8, "unit": "mmHg"}, {"measurement": "BP after second bolus NE (0.12 μg/kg)", "setting": "α2-AR; [4]", "value": 125.5, "unit": "mmHg"}, {"measurement": "BP after compound (100 μg/kg)", "setting": "α2-AR; [5]", "value": 109.8, "unit": "mmHg"}, {"measurement": "Δ2 = BP changes between second bolus of Norepinephrine and the new baseline BP after injection of compound", "setting": "α2-AR; individual mice, 100 μg/kg compound, listed as UK", "value": "20.0 mmHg and 12.0 mmHg and 7.0 mmHg and 24.0 mmHg"}, {"measurement": "BP after second bolus NE (0.12 μg/kg)", "setting": "α2-AR; individual mice, after 100 μg/kg compound, listed as UK", "value": "125.0 mmHg and 123.0 mmHg and 115.0 mmHg and 139.0 mmHg"}, {"measurement": "BP after compound (100 μg/kg)", "setting": "α2-AR; individual mice, listed as UK", "value": "105.0 mmHg and 111.0 mmHg and 108.0 mmHg and 115.0 mmHg"}, {"measurement": "decrease in BP", "setting": "α2-AR; mice, 100 Ilg/kg, control α2-agonist", "value": 15, "unit": "mmHg"}]}, {"compound": "[Sar^1, Lys^3, Glu^5]ANG II", "values": [{"measurement": "agonist activity", "setting": "rat uterus", "value": "possesses agonist activity"}, {"measurement": "agonist activity", "setting": "[3]", "value": "possesses agonist activity"}]}]}
